Laboratory results from PubChem BioAssay (NCI).
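Each compound was tested at five concentrations against cells in 96-well plates for 48 hours. At the GI50, growth is halved. At the TGI there is no net growth.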

Legend:
Assay in all cases: inhibition of tumour cell growth, NCI panel, 48 h
[1] = tested on: SNB-75 CNS
[2] = tested on: SN12C renal
[3] = tested on: EKVX NSCLC
[4] = tested on: IGROV1 ovarian
[5] = tested on: NCI/ADR-RES ovarian
[6] = tested on: OVCAR-5 ovarian
[7] = tested on: OVCAR-3 ovarian
[8] = tested on: HT29 colon
[9] = tested on: COLO 205 colon
[10] = tested on: NCI-H522 lung

Compound	GI50 [1] [µM]	TGI [1] [µM]	GI50 [2] [µM]	TGI [2] [µM]	GI50 [3] [µM]	TGI [3] [µM]	GI50 [4] [µM]	TGI [4] [µM]	GI50 [5] [µM]	TGI [5] [µM]	GI50 [6] [µM]	TGI [6] [µM]	GI50 [7] [µM]	TGI [7] [µM]	GI50 [8] [µM]	TGI [8] [µM]	GI50 [9] [µM]	TGI [9] [µM]	GI50 [10] [µM]	TGI [10] [µM]
OC(CNc1ccnc2cc(Cl)ccc12)CNc1ccnc2cc(Cl)ccc12	1.5	3.03	1.89	3.7	2.22	6.04	10.9	36.8	> 100	> 100	1.73	3.42	1.81	3.42	–	–	–	–	–	–
C[C@@H](Oc1cc(-n2cnc3ccc(OC4CCN(C)CC4)cc32)sc1C(N)=O)c1ccccc1Cl	0.0614	2.89	0.255	4.75	–	–	0.0622	6.88	0.0955	3.58	0.024	5.76	0.00858	3.2	0.00829	2.77	0.00926	0.106	0.0117	5.03
CN(CCS(=O)(=O)N1C(=O)C2CCCN2C(=O)[C@@H]1Cc1ccccc1)C(=O)OCc1ccccc1 (stereo partly specified)	–	> 100	–	> 100	–	> 100	–	> 100	–	–	–	> 100	–	> 100	–	> 100	–	> 100	–	> 100
CCCCCCCCCCCCCCCC1=NCC[N+]1(CCO)CCO	2.47	16.6	1.85	3.92	10.2	32.4	1.21	2.63	2.62	6.61	1.97	4.15	2.52	5.74	2.57	9.13	1.87	3.68	–	–
O=C1[C@H]2ON(c3ccccc3)C(c3ccc([N+](=O)[O-])cc3)[C@H]2C(=O)N1c1ccc(Cc2ccc(N3C(=O)[C@@H]4ON(c5ccccc5)C(c5ccc([N+](=O)[O-])cc5)[C@@H]4C3=O)cc2)cc1 (stereo partly specified)	–	> 100	–	> 100	–	> 100	–	> 100	–	–	–	> 100	–	> 100	–	> 100	–	> 100	–	> 100
CC1=N/C(=C/c2ccc3c(c2)OCO3)C(=O)O1	–	> 100	–	> 100	–	> 100	–	> 100	–	–	–	> 100	–	> 100	–	> 100	–	> 100	–	> 100
CCC[C@H]1O[C@@H]2CC(=O)O[C@@H]2C2=C1C(=O)C=CC2=O	–	36	–	32.6	–	> 62.4	–	32.1	–	–	–	36	–	28.5	–	43.3	–	9.03	–	4.68
CC(C)(C)C1=CC(=C(P(=O)(O)O)P(=O)(O)O)C=C(C(C)(C)C)C1=O	–	> 50	–	–	–	> 50	–	> 50	–	–	–	> 50	–	> 50	–	> 50	–	–	–	> 50
C=C[C@@H](C)[C@]1(C(=O)OC)CCCC12OCCO2	–	> 100	–	> 100	–	> 100	–	> 100	–	–	–	> 100	–	> 100	–	> 100	–	> 100	–	> 100
COc1ccc(Cc2c3cc(O)c(=O)cc-3ccn2C)cc1	–	> 100	–	> 100	–	> 100	–	> 100	–	–	–	> 100	–	> 100	–	> 100	–	> 100	–	> 100
C/C(=N\N=C(N)N)C(CN1CCCCC1)C(c1ccccc1)c1c(O)c2ccccc2oc1=O (stereo unspecified)	–	> 100	–	> 100	–	> 100	–	> 100	–	–	–	> 100	–	> 100	–	> 100	–	> 100	–	> 100
O=C1NC(=C(Cl)Cl)/C(=N/S(=O)(=O)N2CCCCC2)N1	1.76	3.77	1.7	3.14	–	–	–	–	3.87	29.2	1.87	3.63	2.09	3.78	1.99	3.98	2.01	3.88	1.59	3.39
Cc1c(C)c2ccc3oc4ccccc4c3c2oc1=O	–	> 100	–	> 100	–	> 100	–	> 100	–	–	–	> 100	–	> 100	–	> 100	–	> 100	–	> 100
CCOC(=O)c1cc(C(=O)c2ccc(OC)cc2)n2ccc(/C=C/c3cc[n+](CC(=O)c4ccc(OC)cc4)cc3)cc12	–	–	–	–	2.8	> 100	1.74	4.46	> 100	> 100	–	–	1.52	3	1.81	4.55	–	–	–	–
CCOC(OC(C)=O)[C@@H]1C=C[C@H](C)N(c2ccc([N+](=O)[O-])cc2)O1 (stereo partly specified)	–	25.9	–	22.3	–	39	–	29	–	–	–	10.4	–	15.7	–	11.4	–	27.7	–	8.97
CSc1ccc2c(cc1=O)[C@@H](NC(=O)c1cccc([N+](=O)[O-])c1)CCc1cc(O)c(O)c(O)c1-2	–	86.1	–	88.9	–	> 100	–	> 100	–	–	–	> 100	–	> 100	–	> 100	–	> 100	–	68.2
CC(C)N(C(=O)C12C3C4C5(C#N)C3C1(C#N)C5C42C#N)C(C)C (stereo unspecified)	–	> 100	–	> 100	–	> 100	–	> 100	–	–	–	> 100	–	> 100	–	> 100	–	> 100	–	> 100
O=C(CCC(=O)Nc1ccc(Cl)c(Cl)c1)Cc1nc2ccccc2o1	–	> 100	–	> 100	–	> 100	–	> 100	–	–	–	> 100	–	> 100	–	> 100	–	> 100	–	> 100
COc1cc2cc(OC(C)=O)c3cc4c(cc3c2c(OC)c1OC)OCO4	–	> 100	–	> 100	–	> 100	–	> 100	–	–	–	> 100	–	> 100	–	> 100	–	> 100	–	> 100
Cc1nc2sccn2c1C(=O)NN	–	–	–	> 100	–	> 100	–	> 100	–	–	–	> 100	–	> 100	–	> 100	–	> 100	–	> 100

Compound	GI50 [1] [µM]	TGI [1] [µM]	GI50 [2] [µM]	TGI [2] [µM]	GI50 [3] [µM]	TGI [3] [µM]	GI50 [4] [µM]	TGI [4] [µM]	GI50 [5] [µM]	TGI [5] [µM]	GI50 [6] [µM]	TGI [6] [µM]	GI50 [7] [µM]	TGI [7] [µM]	GI50 [8] [µM]	TGI [8] [µM]	GI50 [9] [µM]	TGI [9] [µM]	GI50 [10] [µM]	TGI [10] [µM]
O=C(C(=O)c1cc2ccccc2[nH]1)c1cc2ccccc2[nH]1	–	> 347	–	> 347	–	> 347	–	> 347	–	–	–	> 347	–	95.7	–	> 347	–	> 347	–	114
NS(=O)(=O)OC[C@H]1C[C@@H](Nc2ccnc3cc(-c4cccc(SC(F)(F)F)c4)nn23)[C@H](O)[C@@H]1O	0.0397	0.187	0.0462	0.319	0.028	0.104	0.111	0.673	–	–	0.0578	2.83	< 0.0166	0.034	0.249	0.552	0.0229	0.0525	0.0184	0.0363
NCCSSCc1ccccc1CSSCCN	–	> 100	–	> 100	–	> 100	–	> 100	–	–	–	> 100	–	> 100	–	> 100	–	> 100	–	27.8
COc1cc(/C=C2\CC3C4CC=C5C[C@@H](OC(C)=O)CC[C@]5(C)C4CC[C@]3(C)C2=O)ccc1OCCN1CCCCC1 (stereo partly specified)	27.3	56.9	–	–	13.7	27.4	–	–	3.56	6.89	3.83	7.42	2.05	5.29	1.88	> 100	3.14	30.4	7.28	25.7
NC(=O)NNC(=O)CCn1[nH]c(=O)c(Cl)c(Cl)c1=O	–	> 100	–	> 100	–	> 100	–	> 100	–	–	–	> 100	–	> 100	–	> 100	–	> 100	–	> 100
O=C(CN(/C=C/C(=O)C(F)(F)F)c1ccc(Cl)cc1)c1ccc(Cl)cc1	–	–	11.9	24.2	14.3	28.7	1.79	7.96	9.07	37	16.1	32.9	4.52	17.3	7.41	> 100	13.4	31.8	2.1	5.93
O=C(/C=C\c1ccccc1O)c1ccc(O)cc1O	–	–	–	> 100	–	> 100	–	> 100	–	–	–	> 100	–	> 100	–	> 100	–	72.9	–	> 100
Cc1c(C)n(CCCN2CCN(C)CC2)c2ccc(Oc3cccc(C(=O)N4CCN(CCc5ccc(F)cc5)CC4)c3)cc12	1.39	2.85	1.54	3.09	1.65	3.12	1.57	3.16	1.79	3.54	1.58	3	1.82	3.39	–	–	1.97	3.8	–	–
Cc1ccc(C)c(N2C(=O)C(=O)C(c3nc4ccccc4s3)/C(=N/N)C2=O)c1 (stereo unspecified)	–	> 100	–	> 100	–	> 100	–	> 100	–	–	–	> 100	–	> 100	–	> 100	–	> 100	–	> 100
C=CSCCC(N)C(=O)O (stereo unspecified)	–	> 100	–	> 100	–	> 100	–	> 100	–	–	–	> 100	–	> 100	–	> 100	–	> 100	–	> 100
COC1CCC(OS(C)(=O)=O)C(CO)O1 (stereo unspecified)	–	> 100	–	> 100	–	> 100	–	> 100	–	–	–	> 100	–	> 100	–	> 100	–	–	–	> 100
C=CCNC(=O)NCCCCC(NC(C)=O)C(=O)NCc1ccccc1 (stereo unspecified)	–	> 100	–	> 100	–	> 100	–	> 100	–	–	–	> 100	–	> 100	–	> 100	–	> 100	–	> 100
COc1ccc(C(=O)C(CN(C)C)CN(C)C)cc1	11.4	26.5	12.6	56.4	13.7	51.1	15.4	39.2	2.6	6.42	12.6	30.8	1.29	2.57	2.3	5.77	1.11	2.32	–	–
CC1(C)OC2C(CCP(=O)(O)O)OC(c3nc(C(N)=O)cs3)C2O1 (stereo unspecified)	–	> 100	–	> 100	–	> 100	–	> 100	–	–	–	> 100	–	–	–	> 100	–	> 100	–	> 100
C=C(CCCCC)CN1CCCC1C(C)=O (stereo unspecified)	–	78.7	–	98.6	–	> 100	–	> 100	–	–	–	> 96.1	–	> 100	–	> 100	–	32.4	–	34.7
C=C(C)[C@H]1CC[C@@]2(C)C(C1)[C@H](C)CC[C@@H]2O (stereo partly specified)	–	> 100	–	> 100	–	> 100	–	> 100	–	–	–	> 100	–	> 100	–	> 100	–	> 100	–	> 100
Cc1nn(CNc2ccccc2C(F)(F)F)c(=S)n1/N=C/c1cccc2cccnc12	27.4	> 100	19.9	72.7	> 100	> 100	52.3	> 100	35.3	> 100	> 100	> 100	> 100	> 100	–	–	> 100	> 100	> 100	> 100
COC(=O)c1cc2c(=O)n(C)c3ccccc3n2c1C(=O)OC	–	37.3	–	> 100	–	78.2	–	> 100	–	–	–	> 100	–	> 100	–	> 100	–	> 100	–	73.7
CC(=O)Nc1ccc(/C=C/C(=O)c2sc(-c3cccnc3)nc2C)cc1	–	> 100	–	> 100	–	> 100	–	> 100	–	–	–	> 100	–	> 100	–	> 100	–	> 100	–	> 100
